Results reported in ChEMBL document CHEMBL1201862, “PubChem BioAssay data set” (2004).
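Method: 48-hour compound exposure of cells in 96-well plates, five concentrations, linear interpolation of endpoints. GI50: concentration for 50% inhibition of growth.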 The source made the active and inactive calls. Rule as the data show it: active = GI50 up to about 1.1 µM and inactive = higher. Bridge positions count the residues as written; N and C are the ends. Square brackets hold non-standard residues; d marks the D form. Peptide text beside a SMILES is read from it. * marks the point of attachment. Cbz = O=C(OCc1ccccc1)*; Dab = NCC[CH](N)C(=O)O; Bn = c1ccc(C*)cc1

Experiments:
Assay in all cases: NCI tumour cell line growth inhibition, 48 h
CCRF-CEM = system: CCRF-CEM
HCT-116 = system: HCT-116
K562 = system: K562
LOX IMVI = system: LOX IMVI
MCF7 = system: MCF7
MOLT-4 = system: MOLT-4
NCI/ADR-RES = system: NCI/ADR-RES
OVCAR-4 = system: OVCAR-4
OVCAR-5 = system: OVCAR-5
OVCAR-8 = system: OVCAR-8
SF-268 = system: SF-268
SF-539 = system: SF-539
SK-MEL-28 = system: SK-MEL-28
SNB-19 = system: SNB-19
T47D = system: T47D
TK-10 = system: TK-10
UACC-62 = system: UACC-62
UO-31 = system: UO-31
SK-MEL-2 = system: SK-MEL-2

Row | Compound | GI50 (CCRF-CEM) | GI50 (HCT-116) | GI50 (K562) | GI50 (LOX IMVI) | GI50 (MCF7) | GI50 (MOLT-4) | GI50 (NCI/ADR-RES) | GI50 (OVCAR-4) | GI50 (OVCAR-5) | GI50 (OVCAR-8) | GI50 (SF-268) | GI50 (SF-539) | GI50 (SK-MEL-28) | GI50 (SNB-19) | GI50 (T47D) | GI50 (TK-10) | GI50 (UACC-62) | GI50 (UO-31) | GI50 (SK-MEL-2)
1 | Cn1cc(NC(=O)Nc2cc(C(=O)Nc3cc(C(=O)Nc4ccc5cc(S(=O)(=O)O)cc(S(=O)(=O)O)c5c4)n(C)c3)n(C)c2)cc1C(=O)Nc1cc(C(=O)Nc2ccc3cc(S(=O)(=O)O)cc(S(=O)(=O)O)c3c2)n(C)c1 | > 100 µM (inactive) | > 100 µM (inactive) | > 100 µM (inactive) | > 100 µM (inactive) | > 100 µM (inactive) | > 100 µM (inactive) | > 100 µM (inactive) | > 100 µM (inactive) | > 100 µM (inactive) | > 100 µM (inactive) | > 100 µM (inactive) | > 100 µM (inactive) | > 100 µM (inactive) | > 100 µM (inactive) | > 100 µM (inactive) | 83 µM (inactive) | > 100 µM (inactive) | > 100 µM (inactive) | –
2 | COC1=CC(=O)C(C2(OC(C)C)OC(=O)C(Cl)=C2Cl)=CC1=O (stereo unspecified) | 82.4 µM (inactive) | > 100 µM (inactive) | < 0.01 µM (active) | 64.1 µM (inactive) | > 100 µM (inactive) | – | > 100 µM (inactive) | – | > 100 µM (inactive) | 24.9 µM (inactive) | > 100 µM (inactive) | > 100 µM (inactive) | > 100 µM (inactive) | > 100 µM (inactive) | > 100 µM (inactive) | > 100 µM (inactive) | > 100 µM (inactive) | 74.5 µM (inactive) | 29.4 µM (inactive)
3 | CC1(C)[C@@H]2CC[C@]1(C)[C@H](OC(=O)CSC#N)C2 | – | 40.4 µM (inactive) | – | 35.2 µM (inactive) | 65.9 µM (inactive) | – | > 100 µM (inactive) | > 100 µM (inactive) | > 100 µM (inactive) | 34.2 µM (inactive) | > 100 µM (inactive) | 28.7 µM (inactive) | > 100 µM (inactive) | > 100 µM (inactive) | > 100 µM (inactive) | > 100 µM (inactive) | > 100 µM (inactive) | 39.1 µM (inactive) | > 100 µM (inactive)
4 | CCOC(=O)C1=COC(C)(c2ccccc2)CC1=O (stereo unspecified) | – | > 100 µM (inactive) | > 100 µM (inactive) | – | > 100 µM (inactive) | 49.7 µM (inactive) | > 100 µM (inactive) | > 100 µM (inactive) | > 100 µM (inactive) | > 100 µM (inactive) | > 100 µM (inactive) | > 100 µM (inactive) | > 100 µM (inactive) | > 100 µM (inactive) | > 100 µM (inactive) | > 100 µM (inactive) | > 100 µM (inactive) | > 100 µM (inactive) | > 100 µM (inactive)
5 | CC(C)CC1NC(=O)C(Cc2ccccc2)NC(=O)C(Cc2ccccc2)NC(=O)C(NC(=O)C(Cc2ccc(OCc3ccccc3)cc2)NC(=O)OCc2ccccc2)CCNC1=O (stereo unspecified) (Cbz-Y(Bn)[Dab]FFL; lactam 2-C; configuration not given here) | 33.7 µM (inactive) | > 100 µM (inactive) | > 100 µM (inactive) | > 100 µM (inactive) | 38.8 µM (inactive) | 14.6 µM (inactive) | > 100 µM (inactive) | 47.2 µM (inactive) | > 100 µM (inactive) | > 100 µM (inactive) | > 100 µM (inactive) | > 100 µM (inactive) | > 100 µM (inactive) | > 100 µM (inactive) | 20.4 µM (inactive) | 32.6 µM (inactive) | 8.47 µM (inactive) | – | –
6 | O=[N+]([O-])c1ccc(/C(=C\c2ccccc2)Cn2ccnc2)cc1 | 28 µM (inactive) | 23.6 µM (inactive) | 17.8 µM (inactive) | 17.3 µM (inactive) | 19.9 µM (inactive) | 24 µM (inactive) | 21.1 µM (inactive) | 40.5 µM (inactive) | 61.5 µM (inactive) | 35.9 µM (inactive) | – | 43.4 µM (inactive) | 59.6 µM (inactive) | 57.9 µM (inactive) | 34.8 µM (inactive) | 32.7 µM (inactive) | 33.5 µM (inactive) | 13.6 µM (inactive) | 22.9 µM (inactive)
7 | Cn1c(=O)c2c(ncn2CCSS(=O)(=O)O)n(C)c1=O | – | > 100 µM (inactive) | > 100 µM (inactive) | – | > 100 µM (inactive) | – | > 100 µM (inactive) | > 100 µM (inactive) | > 100 µM (inactive) | > 100 µM (inactive) | > 100 µM (inactive) | > 100 µM (inactive) | > 100 µM (inactive) | > 100 µM (inactive) | > 100 µM (inactive) | > 100 µM (inactive) | 53.2 µM (inactive) | > 100 µM (inactive) | 55.3 µM (inactive)
8 | O/N=C1/COC(C(F)(F)F)(C(F)(F)F)C1 | – | > 100 µM (inactive) | – | > 100 µM (inactive) | > 100 µM (inactive) | > 100 µM (inactive) | > 100 µM (inactive) | > 100 µM (inactive) | > 100 µM (inactive) | > 100 µM (inactive) | > 100 µM (inactive) | > 100 µM (inactive) | > 100 µM (inactive) | > 100 µM (inactive) | > 100 µM (inactive) | > 100 µM (inactive) | > 100 µM (inactive) | > 100 µM (inactive) | > 100 µM (inactive)
9 | C=C(CC[C@@H](C(=O)O)[C@H]1[C@H](O)C[C@@]2(C)C3=CC[C@@H](C(=C)C)[C@](C)(CCC(=O)O)C3=CC[C@]12C)C(C)C [PORICOIC ACID A] | 29.6 µM (inactive) | 16.4 µM (inactive) | 26.5 µM (inactive) | 19.3 µM (inactive) | 17.1 µM (inactive) | 22.1 µM (inactive) | 19.7 µM (inactive) | 21.1 µM (inactive) | 16.5 µM (inactive) | 19.5 µM (inactive) | – | 20 µM (inactive) | 19.4 µM (inactive) | 17.7 µM (inactive) | 23.8 µM (inactive) | 17.8 µM (inactive) | 15.3 µM (inactive) | 17.2 µM (inactive) | 18.5 µM (inactive)
10 | O=C(CCN1CCOCC1)c1ccc(Oc2ccc(F)cc2)cc1 | 30.8 µM (inactive) | 22.5 µM (inactive) | 23.6 µM (inactive) | 21.8 µM (inactive) | 18.7 µM (inactive) | 23.7 µM (inactive) | 26.9 µM (inactive) | 33.6 µM (inactive) | 24.2 µM (inactive) | 19.4 µM (inactive) | – | 17.9 µM (inactive) | 28 µM (inactive) | > 100 µM (inactive) | 18.9 µM (inactive) | 17.9 µM (inactive) | 18.6 µM (inactive) | 19.7 µM (inactive) | 23.6 µM (inactive)
11 | COc1cc(NC(C)=O)ccc1C(=O)N/N=C/c1ccco1 | 80.2 µM (inactive) | > 100 µM (inactive) | > 100 µM (inactive) | 97.5 µM (inactive) | 52.2 µM (inactive) | 31.3 µM (inactive) | > 100 µM (inactive) | > 100 µM (inactive) | > 100 µM (inactive) | > 100 µM (inactive) | > 100 µM (inactive) | 44.2 µM (inactive) | > 100 µM (inactive) | > 100 µM (inactive) | > 100 µM (inactive) | – | > 100 µM (inactive) | 67.1 µM (inactive) | > 100 µM (inactive)
12 | CN(C)Cc1cc(/N=N/c2ccccc2)ccc1O | 42.3 µM (inactive) | > 100 µM (inactive) | 24.2 µM (inactive) | 26.7 µM (inactive) | 89.1 µM (inactive) | 33.9 µM (inactive) | 24.8 µM (inactive) | – | 42.7 µM (inactive) | 76.4 µM (inactive) | 38.8 µM (inactive) | 67.3 µM (inactive) | 51.4 µM (inactive) | > 100 µM (inactive) | 44.1 µM (inactive) | 34.6 µM (inactive) | 24.5 µM (inactive) | 21.9 µM (inactive) | 38.9 µM (inactive)
13 | O=c1c(/C=C/c2c(O)ccc3ccccc23)nnc2sc(-c3cccc(Br)c3)nn12 | 3.82 µM (inactive) | 22.5 µM (inactive) | 19.9 µM (inactive) | 4.88 µM (inactive) | 13.6 µM (inactive) | 3.4 µM (inactive) | 22.8 µM (inactive) | 4.8 µM (inactive) | 19.5 µM (inactive) | 3.44 µM (inactive) | 4.51 µM (inactive) | 63.8 µM (inactive) | 20.8 µM (inactive) | 39 µM (inactive) | 15 µM (inactive) | – | 20.7 µM (inactive) | 13.4 µM (inactive) | 23.6 µM (inactive)
14 | Cc1ccc(S(=O)(=O)N2CCN(S(=O)(=O)c3ccc(C)cc3)CCN(S(=O)(=O)c3ccc(C)cc3)Cc3cc(C#N)c(C#N)cc3CN(S(=O)(=O)c3ccc(C)cc3)CC2)cc1 | > 100 µM (inactive) | > 100 µM (inactive) | > 100 µM (inactive) | > 100 µM (inactive) | > 100 µM (inactive) | > 100 µM (inactive) | > 100 µM (inactive) | > 100 µM (inactive) | > 100 µM (inactive) | > 100 µM (inactive) | > 100 µM (inactive) | > 100 µM (inactive) | > 100 µM (inactive) | 51.1 µM (inactive) | > 100 µM (inactive) | 86.7 µM (inactive) | > 100 µM (inactive) | > 100 µM (inactive) | –
15 | CCOP(=O)(OCC)/C(C#N)=C/c1ccccn1 | > 100 µM (inactive) | > 100 µM (inactive) | > 100 µM (inactive) | > 100 µM (inactive) | > 100 µM (inactive) | > 100 µM (inactive) | > 100 µM (inactive) | > 100 µM (inactive) | > 100 µM (inactive) | > 100 µM (inactive) | > 100 µM (inactive) | > 100 µM (inactive) | > 100 µM (inactive) | > 100 µM (inactive) | > 100 µM (inactive) | > 100 µM (inactive) | > 100 µM (inactive) | – | –
